Assay results published in ChEMBL document CHEMBL2375345, “New antiprotozoal agents: their synthesis and biological evaluations” (Bioorg Med Chem Lett, 2013).

Tests used:
[1] = tested on: Trypanosoma brucei rhodesiense; assay: Antiprotozoal activity against trypomastigote form of Trypanosoma brucei rhodesiense STIB900 assessed as parasite growth inhibition after 72 hrs by Alamar blue assay; type: functional, organism-based; conditions: STIB900, 72 h
[2] = Selectivity index, ratio of CC50 for human MRC5 cells to IC50 for trypomastigote form of Trypanosoma brucei rhodesiense STIB900; type: functional
[3] = tested on: Trypanosoma cruzi; assay: Antiprotozoal activity against epimastigote form of Trypanosoma cruzi Tulahuen 2 assessed as parasite growth inhibition measured at day 5; type: functional, organism-based; conditions: Tulahuen 2, 120 h
[4] = Cytotoxicity against human MRC5 cells assessed as cell viability after 7 days by Alamar blue assay; type: cell-based
[5] = Selectivity index, ratio of CC50 for human MRC5 cells to IC50 for amastigote form of Leishmania infantum MHOM/MA(BE)/67; type: functional
[6] = tested on: Trypanosoma brucei brucei; assay: Antiprotozoal activity against trypomastigote form of Trypanosoma brucei brucei 427 assessed as parasite growth inhibition; type: functional, organism-based
[7] = tested on: Leishmania infantum; assay: Antiprotozoal activity against amastigote form of Leishmania infantum MHOM/MA(BE)/67 infected in mouse peritoneal macrophages assessed as reduction of intracellular parasite burden after 5 days by Giemsa staining method; type: functional, organism-based; conditions: MHOM/MA(BE)/67, 120 h
[8] = Lipophilicity, log P of the compound; type: physicochemical; conditions: octanol/water
[9] = Selectivity index, ratio of CC50 for human MRC5 cells to IC50 for trypomastigote form of Trypanosoma brucei brucei 427; type: functional
[10] = Selectivity index, ratio of CC50 for human MRC5 cells to IC50 for epimastigote form of Trypanosoma cruzi Tulahuen 2; type: functional
[11] = Cytotoxicity against mouse peritoneal macrophages; type: cell-based; conditions: peritoneal macrophage cell
[12] = tested on: Leishmania donovani; assay: Antiprotozoal activity against […] form of Leishmania donovani infected in primary macrophages assessed as reduction in intracellular parasite level after 90 mins by Giemsa staining method; type: functional, organism-based; conditions: 1.5 h
[13] = tested on: Trypanosoma cruzi; assay: Antiprotozoal activity against trypomastigote form of Trypanosoma cruzi Colombian infected in BALB/c mouse assessed as decrease in parasitemia at 100 mg/kg, po administered for 1 week followed by weekly administration measured after 8 months; conditions: 168 h
[14] = tested on: Trypanosoma cruzi; assay: Trypanocidal activity against Trypanosoma cruzi

| IC50 [1] | IC50 [3] | IC50 [6] | IC50 [7] | logP [8] | IC50 [12] | IC50 [13] | SMILES | Ratio CC50/IC50 [2] | CC50 at 168 h [4] | Ratio CC50/IC50 [5] | Ratio CC50/IC50 [9] | Ratio CC50/IC50 [10] | Activity [11] | IC50 [14] |
| --- | --- | --- | --- | --- | --- | --- | --- | --- | --- | --- | --- | --- | --- | --- |
| 5940 nM | 8070 nM | 7520 nM | 8110 nM | 6.26 |  |  | OC(c1ccccc1)c1c(C(F)(F)F)nc2ccc(Br)cc2c1Br (stereo not given) | 0.25 | 1510 nM | 0.19 | 0.2 | 0.19 |  |  |
| 250 nM | 470 nM | 250 nM | 400 nM | 3.46 |  |  | COc1nc2ccc(Br)cc2c2c1C(C)(OCC(O)CN)c1ccccc1-2 (stereo not given) | 5.44 | 1360 nM | 3.4 | 5.44 | 2.89 | Non-toxic |  |
| 1880 nM | 2500 nM | 8230 nM | 9510 nM | 4.84 |  |  | COc1ccccc1NC(=O)NCC(O)COC1(C)c2ccccc2-c2c1c(OC)nc1ccc(Br)cc21 (stereo not given) | 2.82 | 5310 nM | 0.56 | 0.64 | 2.12 |  |  |
| 3230 nM | 6920 nM | 8230 nM | 8000 nM | 5.71 |  |  | CC1(O)c2ccccc2-c2c1c(OCC(F)(F)F)nc1ccc(Br)cc21 (stereo not given) | 6.14 | 19800 nM | 2.48 | 2.41 | 2.86 |  |  |
| 250 nM | 250 nM | 560 nM | 5080 nM | 4.64 |  |  | O=C1c2ccccc2-c2c1c(Nc1ccncc1)nc1ccc(Br)cc21 | 3 | 750 nM | 0.15 | 1.34 | 3 | Non-toxic |  |
| 8430 nM | 460 nM | 32700 nM | 25400 nM | 4.52 |  |  | COc1nc2ccc(Br)cc2cc1C(c1ccccc1)n1ccnc1 (stereo not given) | 3.65 | 30800 nM | 1.21 | 0.943 | 67.02 |  |  |
| 250 nM | 1000 nM | 510 nM | 1700 nM | 6.84 |  |  | CC(O)c1cc(F)ccc1Oc1nc2ccc(NC(=O)Nc3cccc([N+](=O)[O-])c3)cc2cc1Cc1ccccc1 (stereo not given) | 8.8 | 2200 nM | 1.29 | 4.31 | 2.15 | Non-toxic |  |
| 250 nM | 2890 nM | 650 nM | 3170 nM | 6.72 |  |  | COc1ccccc1NC(=O)Nc1ccc2nc(Oc3ccc(F)cc3C(C)O)c(Cc3ccccc3)cc2c1 (stereo not given) |  | 6210 nM |  | 9.55 | 2.16 | Non-toxic |  |
| 1810 nM | 250 nM | 2180 nM | 2520 nM |  |  |  | O=[N+]([O-])c1ccc2nc(Oc3ccc(F)cc3C(O)Cn3ccnc3)c(Cc3ccccc3)cc2c1 (stereo not given) | 17.37 | 31400 nM | 12.47 | 14.42 | 125.76 | Non-toxic |  |
| 1310 nM | 5810 nM | 2090 nM | 8110 nM | 7.86 |  |  | COc1ccc(NC(=S)Nc2ccc3nc(Oc4ccc(F)cc4C(C)O)c(Cc4ccccc4)cc3c2)cc1 (stereo not given) | 30.91 | 42300 nM | 7.89 | 31.37 | 10.27 |  |  |
| 1990 nM | 7250 nM | 2240 nM | 9510 nM | 5.85 |  |  | COc1nc2ccc(Br)cc2c2c1C(C)(OCC(O)CN1CCN(Cc3ccccc3)CC1)c1ccccc1-2 (mixture of isomers) | 2.83 | 5630 nM | 0.59 | 2.51 | 0.77 |  |  |
| 1640 nM | 5850 nM | 2040 nM | 8110 nM | 7.56 |  |  | COc1nc2ccc(Br)cc2c2c1C(C)(OCC(O)CN1CCN(C(c3ccccc3)c3ccccc3)CC1)c1ccccc1-2 (mixture of isomers) | 10.7 | 17600 nM | 2.16 | 8.6 | 3 |  |  |
|  |  |  |  |  | 250 nM |  | C[C@@H]1[C@H](O)[C@@H](C)/C=C/C=C/C=C/C=C/C=C/C=C/C=C/[C@H](O[C@@H]2O[C@H](C)[C@@H](O)[C@H](N)[C@@H]2O)C[C@@H]2O[C@](O)(C[C@@H](O)C[C@@H](O)[C@H](O)CC[C@@H](O)C[C@@H](O)CC(=O)O[C@H]1C)C[C@H](O)[C@H]2C(=O)O [AMPHOTERICIN B] |  |  |  |  |  |  |  |
|  |  |  |  |  |  | 3660 nM | O=C(Cn1ccnc1[N+](=O)[O-])NCc1ccccc1 [BENZNIDAZOLE] |  |  |  |  |  |  |  |
|  |  |  |  |  |  |  | CC1CS(=O)(=O)CCN1/N=C/c1ccc([N+](=O)[O-])o1 (stereo not given) [NIFURTIMOX] |  |  |  |  |  |  | 1800 nM |
